Data on four molecules can be found in paper PMC6522372 (Nature chemical biology, 2019).

Where a chain is given by its changes, count along the chain named. Names may count otherwise.

Data set [1] deals with T1, McsB (Geobacillus stearothermophilus, UniProt P0DMM5).
T1 sequence (P0DMM5 1-363): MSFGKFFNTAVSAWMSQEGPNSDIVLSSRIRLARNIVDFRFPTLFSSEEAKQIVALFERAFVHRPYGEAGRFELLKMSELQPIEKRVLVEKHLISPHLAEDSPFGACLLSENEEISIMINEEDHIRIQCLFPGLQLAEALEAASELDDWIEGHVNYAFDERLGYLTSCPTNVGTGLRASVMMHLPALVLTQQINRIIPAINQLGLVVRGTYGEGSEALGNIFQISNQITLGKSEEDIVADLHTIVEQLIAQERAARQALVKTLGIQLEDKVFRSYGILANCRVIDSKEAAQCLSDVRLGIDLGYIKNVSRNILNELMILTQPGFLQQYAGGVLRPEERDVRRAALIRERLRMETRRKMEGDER
Briefly: SPR, steady-state. The class given is binding. On the technique in general: In SPR one partner is held on a chip, and binding of the other changes the refractive index at the surface.

Data set [2] has as its target T2, McsB (Geobacillus stearothermophilus, UniProt P0DMM5).
T2 sequence (P0DMM5 1-355): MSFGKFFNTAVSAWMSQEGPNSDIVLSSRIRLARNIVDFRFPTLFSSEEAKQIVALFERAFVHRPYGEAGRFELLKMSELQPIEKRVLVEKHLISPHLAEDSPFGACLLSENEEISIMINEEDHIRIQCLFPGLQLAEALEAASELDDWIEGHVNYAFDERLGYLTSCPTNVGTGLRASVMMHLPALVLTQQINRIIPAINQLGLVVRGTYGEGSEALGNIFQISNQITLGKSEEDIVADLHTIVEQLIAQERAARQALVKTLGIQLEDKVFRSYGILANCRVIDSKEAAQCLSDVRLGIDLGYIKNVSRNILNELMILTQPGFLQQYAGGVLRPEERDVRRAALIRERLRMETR
Briefly: X-ray crystal structure. In kind it is binding.

Data set [3] concerns the molecule itself. The data set can be described thus: SEC-MALS. (In general: Size exclusion chromatography separates by hydrodynamic size, large species first.)

For orientation: Kd means the concentration at which binding is half-saturated. Read a low Kd as a tighter complex. The molecule `Nc1ncnc2c1ncn2[C@@H]1O[C@H](COP(=O)(O)OP(=O)(O)O)[C@@H](O)[C@H]1O` [ADP] had a dissociation constant Kd in data set [1] of 208 ± 60 µM.

For `Nc1ncnc2c1ncn2[C@@H]1O[C@H](COP(=O)(O)OP(N)(=O)O)[C@@H](O)[C@H]1O` [AMP-PN], the “X-ray crystal structure (soak with AMP-PNP, hydrolysed to AMP-PN)” value in data set [2] is listed as “the Mg⋅ATP-binding site shows a clear electron density for AMP-PN”.

In data set [1], `Nc1ncnc2c1ncn2[C@@H]1O[C@H](COP(=O)(O)OP(=O)(O)OP(=O)(O)O)[C@@H](O)[C@H]1O` [ATP] had a Kd of 262 ± 27 µM.

B1: full-length McsB R338A/D339A (enzyme)
chain: T1 sequence (P0DMM5 1-363) with R338A, D339A
Broadly, the stoichiometry N is the number of molecules, sites or subunits per partner or assembly. As to B1, the “stoichiometry N” value in data set [3] amounted to 2.
